Measured values published in patent US9873709B2 (priority 2013, dated 2018).

Assays:
[1] = test system: JAK1-dependent STAT6 phosphorylation downstream of IL-13 stimulation in TF-1 human erythroleukemia cells; assay: cells; conditions: TF-1, read-out: IL-13-pSTAT6 IC50
[2] = test system: JAK1-dependent STAT6 phosphorylation downstream of IL-13 stimulation in BEAS-2B human bronchial epithelial cells; assay: cells; conditions: read-out: IL13-pSTAT6 BEASB2B IC50

Structure (SMILES) | IC50 [1] [nM] | IC50 [2] [nM]
CN1CCC(N(C)C(=O)c2ccc(Nc3nc4c(N5CCC(O)(c6ccc(Cl)cc6)CC5)cccn4n3)cc2)CC1 [Example 1-17, 4-[[8-[4-(4-chlorophenyl)-4-hydroxy-1-piperidyl]-[1,2,4]triazolo[1,5-a]pyridin-2-yl]amino]-N-methyl-N-(1-methyl-4-piperidyl)benzamide] | 33.9 | 153
CNC1CN(C(=O)c2ccc(Nc3nc4c(N5CCC(O)(c6ccc(Cl)cc6)CC5)cccn4n3)cc2)C1 [Example 1-47, [4-[[8-[4-(4-chlorophenyl)-4-hydroxy-1-piperidyl]-[1,2,4]triazolo[1,5-a]pyridin-2-yl]amino]phenyl]-[3-(methylamino)azetidin-1-yl]methanone] | 10.3 | 58.1
O=C(NCCCN1CCOCC1)c1ccc(Nc2nc3c(N4CCC(O)(c5ccc(Cl)cc5)CC4)cccn3n2)cc1 [Example 1-98, 4-[[8-[4-(4-chlorophenyl)-4-hydroxy-1-piperidyl]-[1,2,4]triazolo[1,5-a]pyridin-2-yl]amino]-N-(3-morpholinopropyl) benzamide] | 11.9 | 42.4
CN1CCCC1CCNC(=O)c1ccc(Nc2nc3c(N4CCC(O)(c5ccc(Cl)cc5)CC4)cccn3n2)cc1 (stereo not drawn) [Example 1-102, 4-[[8-[4-(4-chlorophenyl)-4-hydroxy-1-piperidyl]-[1,2,4]triazolo[1,5-a]pyridin-2-yl]amino]-N-[2-(1-methylpyrrolidin-2-yl)ethyl]benzamide] | 45 | 54.7
O=C(c1ccc(Nc2nc3c(N4CCC(O)(c5ccc(Cl)cc5)CC4)cccn3n2)cc1)N1CCC(N2CCOCC2)C1 (stereo not drawn) [Example 1-127, [4-[[8-[4-(4-chlorophenyl)-4-hydroxy-1-piperidyl]-[1,2,4]triazolo[1,5-a]pyridin-2-yl]amino]phenyl]-(3-morpholinopyrrolidin-1-yl)methanone] | 14.7 | 24.5
CN(C)c1cc(CC2CCN(C(=O)c3ccc(Nc4nc5c(N6CCC(O)(c7ccc(Cl)cc7)CC6)cccn5n4)cc3)C2)ncn1 (stereo not drawn) [Example 1-151, [4-[[8-[4-(4-chlorophenyl)-4-hydroxy-1-piperidyl]-[1,2,4]triazolo[1,5-a]pyridin-2-yl]amino]phenyl]-[3-[[6-(dimethylamino)pyrimidin-4-yl]methyl]pyrrolidin-1-yl]methanone] | 107 | 167
O=C(NCCc1ccncc1)c1ccc(Nc2nc3c(N4CCC(O)(c5ccc(Cl)cc5)CC4)cccn3n2)cc1 [Example 1-161, 4-[[8-[4-(4-chlorophenyl)-4-hydroxy-1-piperidyl]-[1,2,4]triazolo[1,5-a]pyridin-2-yl]amino]-N-[2-(4-pyridyl)ethyl]benzamide] | 23.4 | 48.5
CN1CCC(N(C)C(=O)c2ccc(Nc3nc4c(N5CCC(CCO)(c6ccc(Cl)cc6)CC5)cccn4n3)cc2)CC1 [Example 1-255, 4-[[8-[4-(4-chlorophenyl)-4-(2-hydroxyethyl)-1-piperidyl]-[1,2,4]triazolo[1,5-a]pyridin-2-yl]amino]-N-methyl-N-(1-methyl-4-piperidyl)benzamide; formic acid] | 27.1 | 159
COCC1(c2ccc(Cl)cc2)CCN(c2cccn3nc(Nc4ccc(C(=O)N(C)C5CCN(C)CC5)cc4)nc23)CC1 [Example 1-258, 4-[[8-[4-(4-chlorophenyl)-4-(methoxymethyl)-1-piperidyl]-[1,2,4]triazolo[1,5-a]pyridin-2-yl]amino]-N-methyl-N-(1-methyl-4-piperidyl)benzamide; formic acid] | 93.4 | 1440
CN1CCC2CN(C(=O)c3ccc(Nc4nc5c(N6CCC(CO)(c7ccc(Cl)cc7)CC6)cccn5n4)cc3)CC21 (stereo not drawn) [Example 1-275, [4-[[8-[4-(4-chlorophenyl)-4-(hydroxymethyl)-1-piperidyl]-[1,2,4]triazolo[1,5-a]pyridin-2-yl]amino]phenyl]-(1-methyl-2,3,3a,4,6,6a-hexahydropyrrolo[2,3-c]pyrrol-5-yl)methanone] | 3 | 55.5
O=C(c1ccc(Nc2nc3c(N4CCC(CO)(c5ccc(Cl)cc5)CC4)cccn3n2)cc1)N1CCC(c2ccccn2)CC1 [Example 1-276, [4-[[8-[4-(4-chlorophenyl)-4-(hydroxymethyl)-1-piperidyl]-[1,2,4]triazolo[1,5-a]pyridin-2-yl]amino]phenyl]-[4-(2-pyridyl)-1-piperidyl]methanone] | 95.7 | 82
C[C@H]1CN(CCNC(=O)c2ccc(Nc3nc4c(N5CCC(CO)(c6ccc(Cl)cc6)CC5)cccn4n3)cc2)C[C@H](C)O1 [Example 1-277, 4-[[8-[4-(4-chlorophenyl)-4-(hydroxymethyl)-1-piperidyl]-[1,2,4]triazolo[1,5-a]pyridin-2-yl]amino]-N-[2-[(2S,6S)-2,6-dimethylmorpholin-4-yl]ethyl]benzamide] | 23.1 | 73.3
C[C@@H]1CN(CCNC(=O)c2ccc(Nc3nc4c(N5CCC(CO)(c6ccc(Cl)cc6)CC5)cccn4n3)cc2)C[C@H](C)O1 [Example 1-278, 4-[[8-[4-(4-chlorophenyl)-4-(hydroxymethyl)-1-piperidyl]-[1,2,4]triazolo[1,5-a]pyridin-2-yl]amino]-N-[2-[(2R,6S)-2,6-dimethylmorpholin-4-yl]ethyl]benzamide] | 16.3 | 37.6
O=C(c1ccc(Nc2nc3c(N4CCC(CO)(c5ccc(Cl)cc5)CC4)cccn3n2)cc1)N1CCC(c2ccncc2)C1 (stereo not drawn) [Example 1-279, [4-[[8-[4-(4-chlorophenyl)-4-(hydroxymethyl)-1-piperidyl]-[1,2,4]triazolo[1,5-a]pyridin-2-yl]amino]phenyl]-[3-(4-pyridyl)pyrrolidin-1-yl]methanone] | 28.1 | 34.6
O=C(NC1CCN(C2CCCC2)CC1)c1ccc(Nc2nc3c(N4CCC(CO)(c5ccc(Cl)cc5)CC4)cccn3n2)cc1 [Example 1-280, 4-[[8-[4-(4-chlorophenyl)-4-(hydroxymethyl)-1-piperidyl]-[1,2,4]triazolo[1,5-a]pyridin-2-yl]amino]-N-(1-cyclopentyl-4-piperidyl)benzamide] | 124 | 52.8
C[C@H]1CN(C2CCN(C(=O)c3ccc(Nc4nc5c(N6CCC(CO)(c7ccc(Cl)cc7)CC6)cccn5n4)cc3)CC2)C[C@H](C)O1 [Example 1-281, [4-[[8-[4-(4-chlorophenyl)-4-(hydroxymethyl)-1-piperidyl]-[1,2,4]triazolo[1,5-a]pyridin-2-yl]amino]phenyl]-[4-[(2S,6S)-2,6-dimethylmorpholin-4-yl]-1-piperidyl]methanone] | 70.2 | 134
C[C@@H]1CN(C2CCN(C(=O)c3ccc(Nc4nc5c(N6CCC(CO)(c7ccc(Cl)cc7)CC6)cccn5n4)cc3)CC2)C[C@H](C)O1 [Example 1-282, [4-[[8-[4-(4-chlorophenyl)-4-(hydroxymethyl)-1-piperidyl]-[1,2,4]triazolo[1,5-a]pyridin-2-yl]amino]phenyl]-[4-[(2R,6S)-2,6-dimethylmorpholin-4-yl]-1-piperidyl]methanone] | 42.6 | 55.6
CC(C)(CNC(=O)c1ccc(Nc2nc3c(N4CCC(CO)(c5ccc(Cl)cc5)CC4)cccn3n2)cc1)N1CCOCC1 [Example 1-285, 4-[[8-[4-(4-chlorophenyl)-4-(hydroxymethyl)-1-piperidyl]-[1,2,4]triazolo[1,5-a]pyridin-2-yl]amino]-N-(2-methyl-2-morpholino-propyl)benzamide] | 22.1 | 57.6
CCN(Cc1ccncc1)C(=O)c1ccc(Nc2nc3c(N4CCC(CO)(c5ccc(Cl)cc5)CC4)cccn3n2)cc1 [Example 1-287, 4-[[8-[4-(4-chlorophenyl)-4-(hydroxymethyl)-1-piperidyl]-[1,2,4]triazolo[1,5-a]pyridin-2-yl]amino]-N-ethyl-N-(4-pyridylmethyl)benzamide] | 22.5 | 36.4
O=C(c1ccc(Nc2nc3c(N4CCC(CO)(c5ccc(Cl)cc5)CC4)cccn3n2)cc1)N1CCCC1c1ccncc1 (stereo not drawn) [Example 1-288, [4-[[8-[4-(4-chlorophenyl)-4-(hydroxymethyl)-1-piperidyl]-[1,2,4]triazolo[1,5-a]pyridin-2-yl]amino]phenyl]-[2-(4-pyridyl)pyrrolidin-1-yl]methanone] | 28 | 67.7
CN1CC[C@H]2CN(C(=O)c3ccc(Nc4nc5c(C6=CCN(C(=O)CCC(F)(F)F)CC6)cccn5n4)cc3)C[C@H]21 [Example 2-38, 1-[4-[2-[4-[(3aS,6aS)-1-methyl-2,3,3a,4,6,6a-hexahydropyrrolo[3,4-b]pyrrole-5-carbonyl]anilino]-[1,2,4]triazolo[1,5-a]pyridin-8-yl]-3,6-dihydro-2H-pyridin-1-yl]-4,4,4-trifluoro-butan-1-one] | 2.9 | 28.6
CN1CCCC12CN(C(=O)c1ccc(Nc3nc4c(C5=CCN(C(=O)CCC(F)(F)F)CC5)cccn4n3)cc1)C2 [Example 2-40, 4,4,4-trifluoro-1-[4-[2-[4-(5-methyl-2,5-diazaspiro[3.4]octane-2-carbonyl)anilino]-[1,2,4]triazolo[1,5-a]pyridin-8-yl]-3,6-dihydro-2H-pyridin-1-yl]butan-1-one] | 3.5 | 18.7
O=C(NC1CCN(C2CCCC2)CC1)c1ccc(Nc2nc3c(C4=CCN(C(=O)CCC(F)(F)F)CC4)cccn3n2)cc1 [Example 2-49, N-(1-cyclopentyl-4-piperidyl)-4-[[8-[1-(4,4,4-trifluorobutanoyl)-3,6-dihydro-2H-pyridin-4-yl]-[1,2,4]triazolo[1,5-a]pyridin-2-yl]amino]benzamide] | 3.8 | 10.2
CCOC(=O)N1CC=C(c2cccn3nc(Nc4ccc(C(=O)NCCCN5CCOCC5)cc4)nc23)CC1 [Example 2-56, ethyl 4-[2-[4-(3-morpholinopropylcarbamoyl)anilino]-[1,2,4]triazolo[1,5-a]pyridin-8-yl]-3,6-dihydro-2H-pyridine-1-carboxylate] | 6.7 | 59.4
